Consider 14 molecules from patent US8871754B2, “Compounds and compositions for the treatment of parasitic diseases” (IRM LLC, priority 2012, dated 2014).

Structures are written as SMILES.

The test system of the assay is P. falciparum (NF54 or 3D7 strain) in infected human erythrocytes. Nature of the assay: Assay for P. falciparum proliferation in infected human blood cells (SYBR Green). The assay is classed as cell-based. The following applies: Plasmodium falciparum, Erythrocyte; NF54 or 3D7 strain, 72 hours, SYBR Green fluorescence; read-out: EC50 (nM), inhibitory efficacy in delaying P. falciparum proliferation in infected human blood cells. The procedure: Assay for P. falciparum Proliferation in Infected Human Blood Cells
Compounds of the invention can be assayed to measure their capacity to inhibit proliferation of P. falciparum parasitemia in infected red blood cells. This parasite proliferation assay measures the increase in parasite DNA content using a DNA intercalating dye, SYBR Green® (INVITROGEN®) which has a high affinity for double stranded DNA.
NF54 or 3D7 P. falciparum strain is grown in complete culturing media until parasitemia reaches 3% to 8% with O+ human erythrocytes. […] 20 μl of screening media is dispensed into 384 well assay plates. 50 nl of compounds of the invention (in DMSO), including antimalarial controls (mefloquine, pyrimethamine and artemisinin), are then transferred into the assay plates, as well as DMSO alone to serve as a negative control for inhibition. Then 30 μl of a suspension of a NF54 or 3D7 P. falciparum infected erythrocytes in screening media is dispensed into the assay plates such that the final hematocrit is 2.5% with a final parasitemia of 0.3%. The plates are placed in a 37° C. incubator for 72 hours in a low oxygen environment containing 93% N2, 4% CO2, and 3% O2 gas mixture. 10 μl of lysis buffer (saponin, triton-X, EDTA) containing a 10× solution of SYBR Green I® in RPMI media is dispensed into the plates. The plates are lidded and kept at room temperature overnight for the lysis of the infected red blood cells. The fluorescence intensity is measured (excitation […], emission 530 nm) using the Envision™ system (Perkin Elmer). The percentage inhibition of 50%, […], is calculated for each compound.
In the case of `N#Cc1ccc(N(CC2CCOCC2)C(=O)c2ccn3ncc(-c4ccc(C(F)(F)F)cc4)c3c2)cc1` [Example 11, N-(4-cyanophenyl)-N-((tetrahydro-2H-pyran-4-yl)methyl)-3-(4-(trifluoromethyl)phenyl)pyrazolo[1,5-a]pyridine-5-carboxamide], the EC50 turned out to be 6 nM. Consider `CN(C(=O)c1ccc(F)cc1)c1ccn2ncc(-c3ccc(C(N)=O)cc3)c2c1` [Example 56, N-(3-(4-carbamoylphenyl)pyrazolo[1,5-a]pyridin-5-yl)-4-fluoro-N-methylbenzamide], for which the EC50 worked out at 8 nM.

With `Cc1cc(-c2cnn3ccc(C(=O)N(C)c4ccc(C#N)cc4)cc23)cnc1N` [Example 81, 3-(6-amino-5-methylpyridin-3-yl)-N-(4-cyanophenyl)-N-methylpyrazolo[1,5-a]pyridine-5-carboxamide], the EC50 was found to be 36 nM.

In the case of `COc1ccc(-c2cnn3ccc(C(=O)N(C)c4ccc(C#N)cn4)cc23)nc1` [Example 60, N-(5-cyanopyridin-2-yl)-3-(5-methoxypyridin-2-yl)-N-methylpyrazolo[1,5-a]pyridine-5-carboxamide], the EC50 worked out at 683 nM. For the molecule `Cc1ccc(OCc2ccn3ncc(-c4ccc(C(F)(F)F)cc4)c3c2)nc1` [Example 15, 5-(((5-methylpyridin-2-yl)oxy)methyl)-3-(4-(trifluoromethyl)phenyl)pyrazolo[1,5-a]pyridine], the EC50 turned out to be 2320 nM.

`CN(C(=O)c1ccn2ncc(-c3ccc(C(N)=O)cc3)c2c1)C1CCC(C#N)CC1` (centres unmarked) [Example 82, 3-(4-carbamoylphenyl)-N-(4-cyanocyclohexyl)-N-methylpyrazolo[1,5-a]pyridine-5-carboxamide]: the EC50 came to 1160 nM. Take `Cc1ccc(-c2cnn3ccc(C(=O)N(C)c4ccc(C#N)cn4)cc23)nc1` [Example 59, N-(5-cyanopyridin-2-yl)-N-methyl-3-(5-methylpyridin-2-yl)pyrazolo[1,5-a]pyridine-5-carboxamide]: the EC50 was determined as 228 nM. For the molecule `CC(=O)Nc1ccc(-c2cnn3ccc(C(=O)N(C)c4ccc(C#N)cn4)cc23)cc1` [Example 69, 3-(4-acetamidophenyl)-N-(5-cyanopyridin-2-yl)-N-methylpyrazolo[1,5-a]pyridine-5-carboxamide], the EC50 stood at 13 nM. With `CNC(=O)c1ccc(-c2cnn3ccc(C(=O)N(C)c4ccc(F)cc4)cc23)cc1` [Example 64, N-(4-fluorophenyl)-N-methyl-3-(4-(methylcarbamoyl)phenyl)pyrazolo[1,5-a]pyridine-5-carboxamide], the EC50 is 20 nM. Consider `CN(C(=O)c1ccn2ncc(-c3ccc(NC(=O)CN)cc3)c2c1)c1ccc(C#N)cc1` [Example 43, 3-(4-(2-aminoacetamido)phenyl)-N-(4-cyanophenyl)-N-methylpyrazolo[1,5-a]pyridine-5-carboxamide], for which the EC50 turned out to be 9 nM.

Consider `CNC(=O)c1ccc(-c2cnn3ccc(C(=O)N4c5ccc(F)cc5OCC4C)cc23)cc1` (centres unmarked) [Example 74, 4-(5-(7-fluoro-3-methyl-3,4-dihydro-2H-benzo[b][1,4]oxazine-4-carbonyl)pyrazolo[1,5-a]pyridin-3-yl)-N-methylbenzamide], for which the EC50 stood at 52 nM.

Turning to `C[C@H](N)C(=O)Nc1ccc(-c2cnn3ccc(C(=O)N(C)c4ccc(C#N)cc4)cc23)cc1` [Example 26, (S)-3-(4-(2-aminopropanamido)phenyl)-N-(4-cyanophenyl)-N-methylpyrazolo[1,5-a]pyridine-5-carboxamide], the EC50 was 22 nM. As for `Cc1ccc(N(C)C(C)c2ccn3ncc(-c4ccc(C(N)=O)cc4)c3c2)nc1` (centres unmarked) [Example 65, 4-(5-(1-(methyl(5-methylpyridin-2-yl)amino)ethyl)pyrazolo[1,5-a]pyridin-3-yl)benzamide], the EC50 amounted to 504 nM. In the case of `CN(C(=O)c1ccn2ncc(-c3cnc4[nH]ccc4c3)c2c1)c1ccc(C#N)cn1` [Example 53, N-(5-cyanopyridin-2-yl)-N-methyl-3-(1H-pyrrolo[2,3-b]pyridin-5-yl)pyrazolo[1,5-a]pyridine-5-carboxamide], the EC50 was determined as 1 nM.
